# Test results reported in patent US20060241108A1, “Substituted phenoxazines and acridones as inhibitors of AKT” (St. Jude Children's Research Hospital, priority 2005, published 2006).
# What was measured:
# Rh30 cells = experiment: Cell growth inhibition, Rh30 cells; format: cell-based, human; settings: complete medium, six days, nuclei counted
# Method: (§1) Cell lines and growth conditions. The human cell lines Rh1, Rh18, and Rh30 (ATCC Deposit # CRL 2061) have been described, e.g., by Hazelton et al. Cancer Res 1987;47:4501-4507 and Hosoi et al. Cancer Res. 1999;59:886-894. Rh1, Rh18 and Rh30 cells can each be grown in antibiotic free RPMI-1640 medium (available from BioWhittaker, Walkersville, Md.), supplemented with 10% fetal bovine serum (available from HyClone Laboratories, Logan, Utah) and 2 mM L-glutamine (available from BioWhittaker, Walkersville, Md.) at 37° C. in an atmosphere of 5% CO2. For serum free experiments, cells can be cultured in modified N2E (MN2E) medium (DMEM/F-12, 1:1 mixture) (Sigma, St. Louis, Mo.) supplemented with 1 μg/ml human holo transferrin, 30 nM sodium selenite, 20 nM progesterone, 100 μM putrescine, 30 nM vitamin E phosphate, and 50 μM ethanolamine. […]
# (§2) Cell growth inhibition. […] Growth can be assessed after lysing cells, and counting nuclei. […]
# (§3) The effect(s) of compounds, including phenoxazine compounds such as those listed in Table I, above, on cell growth can be evaluated in cell-based assays such as the exemplary assays described here. Rh1, Rh18 and/or Rh30 cells grown in complete medium can be exposed to graded concentrations of test compound (e.g., from 0.1 to 25 μM) for six days, at which time the cells can be lysed and their growth assessed by counting nuclei. […]
# [1] = target: T1, recombinant p-110 gamma enzyme (Homo sapiens, UniProt P48736); experiment: PI 3-kinase assay in vitro; format: biochemical; settings: 5 μM; phosphatidylinositol substrate, [γ32P]-ATP, TLC
# T1 construct: purchased AG Scientific, San Diego, Calif
# T1 sequence (P48736 whole entry, species assumed): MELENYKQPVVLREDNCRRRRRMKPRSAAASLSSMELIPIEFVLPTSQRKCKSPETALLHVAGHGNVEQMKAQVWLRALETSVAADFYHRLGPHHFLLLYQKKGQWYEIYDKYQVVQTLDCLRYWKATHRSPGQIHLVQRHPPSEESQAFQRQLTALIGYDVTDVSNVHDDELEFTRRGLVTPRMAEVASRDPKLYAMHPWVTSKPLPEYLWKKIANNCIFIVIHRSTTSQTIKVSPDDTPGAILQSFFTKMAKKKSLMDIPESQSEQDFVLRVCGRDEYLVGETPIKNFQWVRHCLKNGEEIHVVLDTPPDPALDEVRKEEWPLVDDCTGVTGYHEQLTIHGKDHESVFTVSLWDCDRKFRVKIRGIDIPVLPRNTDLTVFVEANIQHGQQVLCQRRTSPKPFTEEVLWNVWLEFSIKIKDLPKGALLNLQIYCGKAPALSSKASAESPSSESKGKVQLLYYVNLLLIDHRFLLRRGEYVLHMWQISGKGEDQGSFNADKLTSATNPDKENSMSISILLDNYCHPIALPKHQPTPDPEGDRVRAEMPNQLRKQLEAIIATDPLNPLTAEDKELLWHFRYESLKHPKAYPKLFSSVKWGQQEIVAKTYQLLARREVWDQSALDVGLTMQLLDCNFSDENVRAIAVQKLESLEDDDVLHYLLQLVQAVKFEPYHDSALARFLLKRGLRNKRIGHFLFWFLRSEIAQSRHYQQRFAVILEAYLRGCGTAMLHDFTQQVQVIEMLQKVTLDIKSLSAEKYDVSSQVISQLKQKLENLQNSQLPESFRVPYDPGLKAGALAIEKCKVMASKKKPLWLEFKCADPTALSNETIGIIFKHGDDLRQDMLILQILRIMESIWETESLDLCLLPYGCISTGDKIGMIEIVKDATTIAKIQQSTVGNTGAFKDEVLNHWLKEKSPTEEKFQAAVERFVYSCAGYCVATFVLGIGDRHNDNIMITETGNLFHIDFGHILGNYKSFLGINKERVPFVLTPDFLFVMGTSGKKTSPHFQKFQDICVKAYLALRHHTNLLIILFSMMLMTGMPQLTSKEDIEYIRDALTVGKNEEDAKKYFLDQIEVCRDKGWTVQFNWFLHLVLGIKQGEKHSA
# Method: PI 3-kinase assay. […] 10 μg of phosphatidylinositol (available from Sigma, St. Louis, Mo.) can then be added to each sample, and the incubation preferably continues on ice for an additional 15 minutes. ATP (final concentration 25 μM containing 30 μCi of [γ^32p]-ATP) can be added to each sample, and the reaction mixtures incubated at 37° C. for 10 minutes. Reactions can be terminated by adding 20 μl of 6 N hydrochloric acid. The sample is preferably vortexed, and lipids extracted into 300 μl of MeOH:CHCl3 (1:1) mixture. After mixing gently and spinning at 10,000×g for 5 minutes, 50 μl of the organic phase is preferably spotted onto a silica coated thin layer chromatography (TLC) plate (available from EMD, La Jolla, Calif.) and developed using a solvent system containing CHCl3:MeOH:H2O:NH4OH (60:47:11.3:2). The TLC plate can then be allowed to dry, and the bands analyzed using a Storm 860 phosphoimager (available from Amersham Biosciences, Sunnyvale, Calif.).
# Lipids in such assays can be resolved by thin layer chromatography (TLC), and incorporated radiolabel quantitated using a phosphoimager.
# AKT = experiment: Inhibition of IGF-I stimulated AKT phosphorylation (Ser473) in Rh1 cells, Western blot; format: cell-based, human; settings: for inhibition of AKT phosphorylation: 2.5 μM, Rh1 cells serum free, IGF-I; for Inhibition (phosphorylation of AKT at Ser 473): 5 μM, 1 hour, serum starved Rh1 cells, IGF-I 10 ng/ml 10 minutes, average of two experiments
# Method: Cell lines and growth conditions. The human cell lines Rh1, Rh18, and Rh30 (ATCC Deposit # CRL 2061) have been described, e.g., by Hazelton et al. Cancer Res 1987;47:4501-4507 and Hosoi et al. Cancer Res. 1999;59:886-894. Rh1, Rh18 and Rh30 cells can each be grown in antibiotic free RPMI-1640 medium (available from BioWhittaker, Walkersville, Md.), supplemented with 10% fetal bovine serum (available from HyClone Laboratories, Logan, Utah) and 2 mM L-glutamine (available from BioWhittaker, Walkersville, Md.) at 37° C. in an atmosphere of 5% CO2. For serum free experiments, cells can be cultured in modified N2E (MN2E) medium (DMEM/F-12, 1:1 mixture) (Sigma, St. Louis, Mo.) supplemented with 1 μg/ml human holo transferrin, 30 nM sodium selenite, 20 nM progesterone, 100 μM putrescine, 30 nM vitamin E phosphate, and 50 μM ethanolamine. Cells in MN2E medium containing 5 μg/ml bovine fibronectin (available from Sigma, St. Louis, Mo.) are preferably plated, and allowed to attach overnight at 37° C. in a humidified, 5% CO2 atmosphere.
# Cellular screening for inhibitors. Rh1, Rh18 and Rh30 cells can each be seeded at a density of 4×10^6/10-cm plate in serum-free medium for overnight attachment. The cells can then be exposed to 0.1% DMSO or to a test compound (for example, a phenoxazine or acridone compound) for one hour, then stimulated with Insulin-like growth factor-I (IGF-I) (10 ng/ml) for 10 minutes.
# Western blot analysis. Cells are rapidly washed with ice-cold phosphate-buffered saline (PBS), placed on ice, and lysed in mammalian protein extraction reagent (M-PER; available from Pierce, Rockford, Ill.) containing one Complete™ mini protease inhibitor tablet (available from Boehringer Mannheim, Mannheim, Germany), 1 mM phenylmethylsulfonyl fluoride, 1 mM Na3VO4 and 1 mM NaF. Cellular debris is pelleted by centrifugation at 17,500×g for 10 minutes at 4° C. The protein concentration of the supernatants is measured by the bicinchoninic acid assay (e.g., using the BCA™ Protein Assay Kit, Pierce, Rockford, Ill., catalog number 23225 or 23227) using bovine serum albumin as the standard.
# For the analysis of AKT, ERK-1/2, mTOR, p70S6 kinase, ribosomal protein S6 (rpS6 or S6), and glycogen synthase kinase 3 (GSK-3), equivalent amounts of protein can be separated on a 12% SDS-polyacrylamide gel (available from BioRad, Hercules, Calif.) by electrophoresis and subsequently transferred to a nitrocellulose membrane (also available from BioRad). After a 1 hour incubation in 1×TBS containing 0.05% Tween 20 and 5% blocking reagent (skim milk) (available from Upstate Biotechnology, Lake Placid, N.Y.) at room temperature, the wet nitrocellulose membranes are incubated with appropriate antibodies (available from Cell Signaling Technology, Beverly, Mass.): rabbit polyclonal antiserum specific for the phosphorylated Ser473 or Thr308 of AKT (dilution 1:1000); rabbit polyclonal antiserum specific for phosphorylated Thr202/Tyr204 of ERK-1/2 (dilution 1:1000); rabbit polyclonal antiserum specific for phosphorylated Ser2448 or Ser2481 of mTOR (dilution 1:1000); rabbit polyclonal antiserum specific for phosphorylated Thr389 of p70S6 kinase (dilution 1:4000); rabbit polyclonal antiserum specific for phosphorylated Ser235/236 of rpS6 (dilution 1:1000); or rabbit polyclonal antiserum specific for phosphorylated Ser21/9 of GSK-3α/β (dilution 1:1000). Horseradish peroxidase-conjugated goat anti-rabbit IgG antibody (dilution 1:10,000) can be used as the secondary antibody. Immunoreactive protein can be visualized using Renaissance chemiluminescence reagent (available from Life Science Products Inc., Boston, Mass.).
# For these assays, Rh1 cells are seeded in serum-free medium for overnight attachment. The serum starved Rh1 cells are then exposed to 1-5 μM of a compound in Table I for 1 hour before stimulating with IGF-I (10 ng/ml) for 10 minutes. […]
# Rh1 cells = experiment: Cell growth inhibition, Rh1 cells; format: cell-based, human; settings: complete medium, six days, nuclei counted
# Method: as §1, §2, §3
Compound,IC50 (Rh30 cells) [µM],PI 3-kinase activity [1],inhibition of AKT phosphorylation (AKT),Inhibition (phosphorylation of AKT at Ser 473) (AKT),IC50 (Rh1 cells) [µM]
10-[4′-[(β-hydroxyethyl)piperazino]butyl]-2-chlorophenoxazine [Compound 15B],6,comparable to the untreated sample,complete inhibition,++++ (++++ ≈ 100% inhibition),2
"CCN(CC)CCCCN1c2ccccc2Oc2ccc(Cl)cc21 [Compound 10B, 10-[4′-(N-diethylamino)butyl]-2-chlorophenoxazine]",6,comparable to the untreated sample,complete inhibition,++++ (++++ ≈ 100% inhibition),2
